# Test results reported in patent publication US20110118337A1, “Method of Using Compositions Comprising MIR-192 and/or MIR-215 for the Treatment of Cancer” (Merck Sharp & Dohme Corp., priority 2008, published 2011).
# Test system: HCT116DICER^ex5 cells
# Experiment: Cell cycle FACS screen of pools of three siRNAs per gene (G1 after nocodazole, G2/M after aphidicolin)
# Format: cell-based, human
# Settings: pools of 3 siRNAs/gene at 100 nM final, FACS 66 hours post-transfection, average of two experiments
# Description: To identify targets whose modulation influences the cell cycle arrest phenotype observed with miR-192 expression, the 62 candidate genes identified as described in Example 2 and shown in TABLE 3 were silenced individually by transfecting a pool of 3 gene-specific siRNA duplexes per gene (each directed to a different region of the gene) into HCT116DICER^ex5 cells. The siRNA duplex sequences (3 duplexes per gene) used to target each of the 62 genes are shown below in TABLE 5. The siRNA duplex oligonucleotides were obtained from Sigma-Genesys, as described in Linsley, P. S. et al., Mol Cell Biol 27:2240-2252 (2007).
# HCT116DICER^ex5 cells were transiently transfected with pools of three different siRNA duplexes per gene at a 100 nM final concentration using Lipofectamine RNAiMax (Invitrogen), according to the manufacturer's instructions. At 48 hours post transfection, cells were left untreated, treated with nocodazole (100 ng/mL, Sigma-Aldrich), or treated with aphidicolin (2 μg/mL, Sigma-Aldrich) for an additional 18 hours before harvesting. The cells transfected with the siRNA pools were then screened by FACS analysis as described in Example 3 for the percentage of cells arrested in G1 or G2/M as compared to the negative siRNA luciferase control.
# The siRNA pools tested in this screen were ranked according to the percentage of cells arrested in G1 or G2/M following transfection, as compared with a negative control siRNA targeting luciferase. To avoid being misled by possible RNAi off-target effects, the siRNA pools were deconvoluted to identify genes for which at least 2 different siRNA duplexes from the pool caused the cell cycle arrest phenotype (data not shown).
# TABLE 6 summarizes the data obtained 66 hours post-transfection by FACS analysis showing the cell cycle distribution of the HCT116DICER^ex5 cells transfected with siRNA pools of 3 siRNAs/gene. Each pool was analyzed in two separate experiments, and the average percentage of the cells trapped in G1 (following nocodazole treatment), or G2/M (following aphidicolin treatment) are shown in TABLE 6.
substance,measurement,setting,value
FGF2,"% G2 (Avg), Aphidicholin+",aphidicolin 2 μg/mL 18 h,19.8%
same,"% G1 (Avg), Nocodazole+",nocodazole 100 ng/mL 18 h,33.7%
